Structures are written as SMILES.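 Compound exposure: 48 hours, 5 concentrations, 96-well plates. TGI: total growth inhibition.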

Test systems include OVCAR-8 ovarian; HOP-62 NSCLC; SK-OV-3 ovarian; UO-31 renal; K-562 leukemia; 786-0 renal; HCT-15 colon; SF-539 CNS; MOLT-4 leukemia; OVCAR-4 ovarian.
Common to all, as to assay: NCI-60 cell line screen, 48 h

As for `CNc1nc2c(C)ccc3[nH]c(N(C)C)nc3c-2n1`, the TGI in the assay with OVCAR-8 ovarian is over 100 µM; with HOP-62 NSCLC it was over 100 µM; in the assay with SK-OV-3 ovarian, over 100 µM; in the assay on UO-31 renal it was over 100 µM; with K-562 leukemia it was 45 µM; with 786-0 renal, over 100 µM. Besides, the TGI in the assay with HCT-15 colon was over 100 µM; in the assay on SF-539 CNS it was 64.5 µM; in the assay with MOLT-4 leukemia, over 100 µM; in the assay with OVCAR-4 ovarian it was 80.9 µM.
Turning to `NC(=O)C1CCCN1C(=O)N(CCCl)N=O` (stereo not given), the TGI with OVCAR-8 ovarian, with HOP-62 NSCLC, in the assay on SK-OV-3 ovarian, with UO-31 renal, in the assay with K-562 leukemia and in the assay with 786-0 renal was over 100 µM throughout. The TGI in the assay on HCT-15 colon, in the assay on SF-539 CNS, in the assay with MOLT-4 leukemia and in the assay with OVCAR-4 ovarian was over 100 µM in each case.
For the compound `COc1ccc(-c2nc3cc(C(F)(F)F)ccc3n2CC2CCCN3CCCCC23)cc1` (stereo not given), the TGI in the assay with OVCAR-8 ovarian is 30.8 µM; in the assay on HOP-62 NSCLC, 38.5 µM; in the assay with SK-OV-3 ovarian, 33.7 µM; with UO-31 renal, 38.8 µM; with K-562 leukemia, 28 µM; in the assay on 786-0 renal, 35.6 µM. The TGI in the assay with HCT-15 colon amounted to 29.1 µM; with SF-539 CNS it was 30.5 µM; with MOLT-4 leukemia it was 28.7 µM; in the assay on OVCAR-4 ovarian it was 39.7 µM.
Consider `CCOC(=O)C1=C(C)NC(C)=C(C(=O)OCC)C1c1ccc(C)cc1`, for which the TGI is over 100 µM with OVCAR-8 ovarian; over 100 µM in the assay on HOP-62 NSCLC; over 100 µM with SK-OV-3 ovarian; over 100 µM in the assay with UO-31 renal; over 100 µM in the assay with K-562 leukemia; 45.8 µM in the assay with 786-0 renal. The TGI was over 100 µM with HCT-15 colon, 91.4 µM with SF-539 CNS, 74.6 µM in the assay on MOLT-4 leukemia and over 100 µM with OVCAR-4 ovarian.
In the case of `CSc1ccc2c(cc1=O)[C@@H](NC(=O)c1ccc([N+](=O)[O-])cc1)CCc1cc(O)c(O)c(O)c1-2`, the TGI in the assay with OVCAR-8 ovarian was over 100 µM; in the assay with HOP-62 NSCLC, 33.4 µM; with SK-OV-3 ovarian, over 100 µM; with UO-31 renal, over 100 µM; in the assay with K-562 leukemia, over 100 µM; in the assay with 786-0 renal, 84.1 µM. Further, the TGI in the assay with HCT-15 colon was 85.1 µM; in the assay with SF-539 CNS, over 100 µM; with MOLT-4 leukemia it was over 100 µM; in the assay with OVCAR-4 ovarian it was over 100 µM.
Regarding `Cc1ccc(C)c(COCCOCn2c(=O)[nH]c(=O)c3cc(Br)ccc32)c1`, the TGI with OVCAR-8 ovarian, in the assay with HOP-62 NSCLC, with SK-OV-3 ovarian, in the assay with UO-31 renal, in the assay with K-562 leukemia and in the assay with 786-0 renal was over 100 µM in each case. Also, the TGI with HCT-15 colon, with SF-539 CNS, in the assay with MOLT-4 leukemia and with OVCAR-4 ovarian was over 100 µM each time.
With `Cc1cc(=O)c2ccccc2n1CCCCCCCCCCn1c(C)cc(=O)c2ccccc21`, the TGI with OVCAR-8 ovarian is 46.7 µM; in the assay on HOP-62 NSCLC, over 100 µM; in the assay with SK-OV-3 ovarian, 35.3 µM; in the assay with UO-31 renal it was 25.6 µM; with K-562 leukemia it was 17.9 µM; in the assay on 786-0 renal, 30.4 µM. Besides, the TGI is over 100 µM in the assay on HCT-15 colon, 44.3 µM with SF-539 CNS, 21.7 µM in the assay with MOLT-4 leukemia and 44.1 µM with OVCAR-4 ovarian.
For `Cc1cccc(C(=O)O)c1CC1NCCC2c3ccccc3NC12` (stereo not given), the TGI in the assay with OVCAR-8 ovarian, in the assay with HOP-62 NSCLC, in the assay on SK-OV-3 ovarian, in the assay with UO-31 renal, in the assay on K-562 leukemia and with 786-0 renal was over 100 µM in each case. In addition, the TGI with HCT-15 colon, with SF-539 CNS, with MOLT-4 leukemia and in the assay on OVCAR-4 ovarian was over 100 µM throughout.
For `O=S(=O)(/N=C(\NO)Nc1ccc(Cl)cc1)C1CC=C(c2ccon2)S1` (stereo not given), the TGI with OVCAR-8 ovarian is over 100 µM; in the assay with HOP-62 NSCLC it was over 100 µM; in the assay with SK-OV-3 ovarian it was over 100 µM; in the assay with UO-31 renal it was 81.6 µM; in the assay with K-562 leukemia, over 100 µM; with 786-0 renal, over 100 µM. Further, the TGI with HCT-15 colon was over 100 µM; with SF-539 CNS, 16.9 µM; in the assay on MOLT-4 leukemia, over 51.3 µM; in the assay on OVCAR-4 ovarian, over 100 µM.
Take `Brc1ccc(-c2cc(-c3ccc4c(c3)OCO4)c(-c3cccs3)n2Cc2ccccc2)cc1`: the TGI with OVCAR-8 ovarian, with HOP-62 NSCLC, in the assay on SK-OV-3 ovarian, in the assay on UO-31 renal, in the assay with K-562 leukemia and in the assay on 786-0 renal was over 100 µM each time. In addition, the TGI in the assay on HCT-15 colon, in the assay on SF-539 CNS, with MOLT-4 leukemia and in the assay on OVCAR-4 ovarian was over 100 µM in each case.
For `O=C1C2CC=CCC2C(=O)N1n1c(Cc2ccccc2)n[nH]c1=O` (stereo not given), the TGI with OVCAR-8 ovarian, with HOP-62 NSCLC, in the assay with SK-OV-3 ovarian, in the assay with UO-31 renal, in the assay on K-562 leukemia and with 786-0 renal was over 100 µM in each case. In addition, the TGI with HCT-15 colon, in the assay with SF-539 CNS, in the assay on MOLT-4 leukemia and in the assay with OVCAR-4 ovarian was over 100 µM in each case.
Take `CC(C)(O)CCc1ccc(O)c2c(=O)c3c(O)c4c(cc3oc12)O[C@H]1OC=C[C@@]41O`: the TGI is 0.273 µM in the assay with OVCAR-8 ovarian; 2.43 µM in the assay on HOP-62 NSCLC; 13.2 µM with SK-OV-3 ovarian; 0.414 µM in the assay with UO-31 renal; over 100 µM in the assay with K-562 leukemia; over 64 µM in the assay on 786-0 renal. Moreover, the TGI in the assay on HCT-15 colon worked out at 14.6 µM; in the assay on SF-539 CNS it was 6.76 µM; with MOLT-4 leukemia it was 0.422 µM; in the assay on OVCAR-4 ovarian it was 0.222 µM.

These data come from PubChem BioAssay (NCI).
